{
  "source": "patent US20230265524A1",
  "about": "“IMMUNOGENIC RETROELEMENTS AND THEIR USE IN CANCER THERAPY” (UNIVERSITY HEALTH NETWORK, priority 2020, published 2023)",
  "key": {"[1]": {"test_system": "interferon stimulated genes (ISG15, DDX58 and IRF7)", "experiment": "interferon response / ISG expression by RNA-seq GSEA and qRT-PCR in patient-derived CRC cells", "format": "cell-based, human", "description": "H, Geneset Enrichment Analysis showing an enrichment of the geneset ‘Hallmark_Interferon_Alpha_Response’ in ADAR1^KD 5-AZA-treated cells compared to ADAR1^WT 5-AZA-CdR treated cells.\nI, Interferon-responsive geneset enrichment score in mock-treated ADAR1^WT, 5-AZA-CdR-treated ADAR1^WT, mock-treated ADAR1^KD, and 5-AZA-CdR-treated ADAR1^KD conditions. Samples were collected 5, 14, and 24 days post-treatment.\nB, Kinetics of interferon stimulated genes (ISG15, DDX58 and IRF7) relative expression in ADAR1^WT (Black) and ADAR1^KD (Gray) patient-derived colorectal cancer cells (CRCs) treated with 5-AZA-CdR analyzed by qRT-PCR. Data are mean±s.e.m. (n=3 from three independent experiments). *P<0.05, **P<0.01, ****P<0.0001, Sidak-corrected two-way ANOVA.\nC, Interferon-responsive gene expression in ADAR1^WT mock-treated (MT), 5-AZA-CdR treated, ADAR1^KD NT and ADAR1^KD p(I:C) transfected samples collected 5 days, 14 days and 24 days post-treatment, measured by RNA-seq.\nD, Kinetics of interferon stimulated genes (ISG15, DDX58 and IRF7) relative expression in ADAR1^WT (Black) and ADAR1^KD (Gray) patient-derived CRCs transfected with p(I:C), analyzed by qRT-PCR. Data are mean±s.e.m. **P<0.01, ****P<0.0001, Sidak-corrected two-way ANOVA.\nF, Interferon stimulated genes (ISG15, DDX58 and IRF7) relative expression in CTRL (LUC) (Black) and ADAR1^p150CE (Gray) patient-derived CRCs treated with 5-AZA-CdR, analyzed by qRT-PCR. Data are mean±s.e.m. **P<0.01, ***P<0.001, Sidak-corrected two-way ANOVA.\nG, IFN enrichment score in CTRL(LUC) Mock-treated, 5-AZA-CdR treated, ADAR1-p150 overexpressing NT and ADAR1-p150 overexpressing 5-AZA-CdR treated samples collected 5 days post-treatment and measured by RNA-seq.\nBased on these findings, we hypothesized that ADAR1 depletion would synergize with the viral mimicry response induced by DNMTi treatment. To assess how ADAR1 depletion affects 5-AZA-CdR treated samples, we performed RNA-seq analyses in patient-derived CRC cells. […] As a molecular read-out of dsRNA pattern recognition activation, we measured MAVS aggregation in the mitochondrial fraction of cell lysates^34. […] Taken together, our findings establish that ADAR1 acts as a negative feedback loop, restricting the viral mimicry response induced by DNMTi treatment in cancer cells."}, "[2]": {"test_system": "patient-derived xenograft CRC cells", "experiment": "subcutaneous patient-derived xenograft CRC tumour growth in NSG mice", "format": "in vivo", "settings": "0.5 mg kg-1 intraperitoneal", "procedure": "B, Schematic representation of in vivo experimental scheme of non-infected, ADAR1^WT, ADAR1^KDA and ADAR1^KDB patient-derived xenograft CRC cells injected subcutaneously into flanks of NSG mice (n=10 mice per group; 2 tumours per mouse). Arrows represent days of treatment (0.5 mg kg-1 5-AZA-CdR by intraperitoneal injection or vehicle).\nC, Tumour volume measured at the indicated time points. Arrows represent days of treatment. ADAR1^KDA 5-AZA-CdR (n=20 tumours) and ADAR1^KDB 5-AZA-CdR (n=18 tumours at day 12 and n=14 tumours at day15) compared with non-infected (NI) 5-AZA-CdR (n=19 tumours) cohort. Data are mean±s.e.m. ****P<0.0001, Tukey-corrected two-way ANOVA\nD, Colorectal cancer tumours dissected from Vehicle and 5-AZA-CdR cohorts at day 14 post-treatment are depicted for each condition (n=5) (NI=non-infected)\nE, Tumour weight for each group at the time of dissection (day 14 after treatment). Data are mean±s.d. ****P<0.0001, Tukey-corrected ordinary-one-way ANOVA.\nFinally, we sought to investigate whether ADAR1 inhibition would synergize with epigenetic therapy to increase the anti-tumour response. […] To examine the potential synergy in vivo, we injected ADAR1^KDA/B or wildtype patient-derived xenograft CRC cells subcutaneously into immune-deficient NOD.Cg-Prkdc (NSG) mice, and treated the mice with 5-AZA-CdR or vehicle (PBS) (FIG. 12B and FIG. 13A). […]"}, "[3]": {"test_system": "patient-derived CRC cells", "experiment": "in vitro sphere initiation assay followed by limiting dilution analysis (LDA)", "format": "cell-based, human", "settings": "ADAR1-depleted CRC cells treated with 5-AZA-CdR", "procedure": "B, The normalized percentage of reduction in sphere forming ability was calculated in each condition compared to Mock-treated.\nOne of the major challenges facing conventional chemotherapy is the persistence of cancer initiating cells (CICs), often resulting in relapse^38-40. We and others have previously shown that 5-AZA-CdR treatment can target colorectal cancer CICs by inducing the viral mimicry response^1,41. We therefore tested whether ADAR1^KD by itself or in combination with 5-AZA-CdR can decrease tumour initiation. To this end, we first employed an in vitro sphere initiation assay followed by limiting dilution analysis (LDA) using patient-derived CRC cells. […] In addition, we performed in vivo tumour initiation assays by injecting serially diluted patient-derived CRC cells into NSG immunodeficient mice and inspected tumour engraftment for up to 6 months after injection (FIG. 12F)."}},
  "data": [
    {"compound": "Nc1ncn([C@H]2C[C@H](O)[C@@H](CO)O2)c(=O)n1", "note": "[5-AZA-CdR]", "values": [
      {"measurement": "type I interferon response (GSEA)", "setting": "[1]; ADAR1-depleted vs wild-type samples, both treated with 5-AZA-CdR", "value": "the most enriched pathway"},
      {"measurement": "persistence of enhanced interferon/ISG response", "setting": "[1]; ADAR1-depleted vs wild-type, after initial treatment", "value": "persisted as long as twenty-four days after initial treatment"},
      {"measurement": "viral mimicry (expression of ISGs and dsRNA formation)", "setting": "[1]; CRC cells overexpressing ADAR1p150", "value": "rescues the ability of 5-AZA-CdR to induce viral mimicry"},
      {"measurement": "anti-tumour activity", "setting": "[2]; ADAR1^KDA/B cells", "value": "remarkable anti-tumour activity"},
      {"measurement": "anti-tumour activity", "setting": "[2]; wildtype cells", "value": "very limited anti-tumour activity"},
      {"measurement": "spheroid forming potential", "setting": "[3]", "value": "reduced the spheroid forming potential"}
    ]}
  ]
}
